Source: ChEMBL document CHEMBL1201862, “PubChem BioAssay data set” (2004)
The source made the active and inactive calls.

Columns and labels:
[1] = blockers of bursicon-stimulated LGR2 cAMP reporter – cell-based, HEK293, CRE-luciferase reporter, cherry pick, set 2, dose response (AID 743343); assay type: functional;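 note: transfected cells were stimulated with diluted bursicon conditioned medium after compound addition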
[2] = blockade of melanocortin 4 receptor signaling – cell-based, plate reader, cherry pick, counter-screen for LGR2 antagonist project, dose response (AID 743444); assay type: functional;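 note: transfected HEK 293 cells stimulated with alpha-MSH peptide; potency of inhibitors of the alpha-MSH evoked signal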
[3] = reduction of Shn3 3'UTR-driven luciferase in osteoblasts – cell-based, Clone20 osteoblasts, firefly luciferase, cherry-picked, dose response (AID 624132); assay type: functional;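 note: firefly luciferase luminescence from reporter carrying the Shn3 3'UTR in osteoblasts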
[4] = A549 cell cytotoxicity, dose response, cytotoxicity control, plate reader, cherry-pick, antagonist series (AID 743412); assay type: functional, cell-based
[5] = non-specific 3'UTR reporter inhibition in Clone20-Shn3RL – cell-based, Renilla luciferase, cherry-picked, counter-screen for Shn3 inhibitor project, dose response (AID 624133); assay type: functional
[6] = biological target: T1, Heat shock factor protein 1 (Mus musculus, UniProt P38532); experiment: decrease of HSF1-responsive luciferase luminescence – cell-based, NIH3T3, dose retest, confirmation (AID 2382); assay type: functional;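 note: NIH3T3 fibroblasts with HSF1-driven luciferase reporter stressed by proteasome inhibitor MG132; luminescence from HSF1-driven luciferase expression after 8 hours of MG132 stress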
T1 sequence (P38532 whole entry): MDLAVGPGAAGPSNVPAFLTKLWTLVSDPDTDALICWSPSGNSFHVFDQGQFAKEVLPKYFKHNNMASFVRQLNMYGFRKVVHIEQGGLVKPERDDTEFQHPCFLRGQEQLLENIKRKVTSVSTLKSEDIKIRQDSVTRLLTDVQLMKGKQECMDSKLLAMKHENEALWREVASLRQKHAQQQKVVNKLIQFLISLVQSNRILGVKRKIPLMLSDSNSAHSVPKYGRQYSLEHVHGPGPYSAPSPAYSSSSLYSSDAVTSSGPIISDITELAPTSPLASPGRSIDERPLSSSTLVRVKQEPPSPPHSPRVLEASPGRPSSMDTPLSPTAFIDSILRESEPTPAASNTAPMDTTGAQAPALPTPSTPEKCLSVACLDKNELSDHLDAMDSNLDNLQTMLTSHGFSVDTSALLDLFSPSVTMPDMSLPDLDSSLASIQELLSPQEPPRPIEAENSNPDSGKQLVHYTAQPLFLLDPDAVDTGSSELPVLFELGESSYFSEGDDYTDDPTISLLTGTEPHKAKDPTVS

[7] = reduced cellular PGC1a acetyl-lysine signal – cell-based, cherry-picked samples, dose response (AID 720514); assay type: functional;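 note: potency may reflect raised or lowered acetylation signal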
[8] = P. falciparum Dd2 growth inhibitors, dose response, SYBR Green, cherry-picked samples (AID 1159567); assay type: functional, cell-based
[9] = toxicity to human hepatoma HepG2 cells – cell-based, cherry-picked samples, cytotoxicity control, dose response (AID 1159577); assay type: functional
[10] = OVCAR-3 cell viability loss – plate reader, dry powder samples, PAX8 inhibitor project, dose response (AID 743044); assay type: functional, cell-based
[11] = IGROV1 cell killing – plate reader, dry powder samples, PAX8 inhibitor project, dose response (AID 743043); assay type: functional, cell-based; settings: IGROV-1
Paired box protein Pax-8 = Paired box protein Pax-8 (Homo sapiens, UniProt Q06710); experiment: PAX8 transcriptional activity inhibition in RMG-I – RMG-I cells, luciferase, cherry-pick, dose response (AID 687027); assay type: functional, cell-based;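 note: luciferase reporter driven by Pax8 target thyroperoxidase promoter measured by SteadyGlo luminescence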
[12] = OVCAR8 cell viability loss – plate reader, dry powder samples, PAX8 project, dose response (AID 743197); assay type: functional, cell-based; settings: OVCAR-8
[13] = biological target: T2, Histone-lysine N-methyltransferase NSD2 (Homo sapiens, UniProt O96028); assay type: biochemical
T2 sequence (O96028 whole entry): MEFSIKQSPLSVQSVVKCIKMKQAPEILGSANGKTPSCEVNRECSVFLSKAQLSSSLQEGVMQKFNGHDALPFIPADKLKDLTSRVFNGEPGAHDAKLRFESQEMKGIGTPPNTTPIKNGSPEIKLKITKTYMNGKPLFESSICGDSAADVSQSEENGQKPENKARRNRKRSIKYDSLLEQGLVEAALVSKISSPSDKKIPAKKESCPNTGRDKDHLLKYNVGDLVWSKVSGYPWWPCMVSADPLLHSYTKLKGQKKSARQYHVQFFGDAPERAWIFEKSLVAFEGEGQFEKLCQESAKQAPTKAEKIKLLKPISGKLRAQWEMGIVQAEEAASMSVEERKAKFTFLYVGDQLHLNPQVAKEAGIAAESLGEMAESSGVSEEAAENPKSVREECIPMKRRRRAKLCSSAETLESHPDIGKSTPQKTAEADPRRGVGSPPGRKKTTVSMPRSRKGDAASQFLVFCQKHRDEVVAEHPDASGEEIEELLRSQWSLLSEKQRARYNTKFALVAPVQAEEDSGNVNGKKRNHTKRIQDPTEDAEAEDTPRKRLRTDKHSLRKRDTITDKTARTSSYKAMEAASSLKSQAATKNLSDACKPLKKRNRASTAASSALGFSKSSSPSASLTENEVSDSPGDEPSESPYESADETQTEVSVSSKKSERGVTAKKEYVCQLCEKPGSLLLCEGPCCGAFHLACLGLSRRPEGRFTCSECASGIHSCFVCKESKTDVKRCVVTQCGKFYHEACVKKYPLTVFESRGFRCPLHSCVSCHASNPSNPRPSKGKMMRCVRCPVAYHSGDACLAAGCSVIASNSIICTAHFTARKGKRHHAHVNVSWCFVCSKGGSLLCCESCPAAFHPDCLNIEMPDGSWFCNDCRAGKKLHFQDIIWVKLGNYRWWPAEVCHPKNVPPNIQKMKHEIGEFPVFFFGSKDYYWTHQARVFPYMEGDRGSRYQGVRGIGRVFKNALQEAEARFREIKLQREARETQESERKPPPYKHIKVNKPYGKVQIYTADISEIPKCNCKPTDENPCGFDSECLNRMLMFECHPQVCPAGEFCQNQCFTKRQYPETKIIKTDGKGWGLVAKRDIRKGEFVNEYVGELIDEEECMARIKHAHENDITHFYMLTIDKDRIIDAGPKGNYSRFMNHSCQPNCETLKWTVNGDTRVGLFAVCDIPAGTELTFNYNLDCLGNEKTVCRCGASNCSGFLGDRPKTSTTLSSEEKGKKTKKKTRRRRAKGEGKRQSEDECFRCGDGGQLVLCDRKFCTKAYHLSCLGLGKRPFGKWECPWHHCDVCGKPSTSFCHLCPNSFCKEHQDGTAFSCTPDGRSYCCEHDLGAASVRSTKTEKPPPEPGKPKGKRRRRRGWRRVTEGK

Protein RecA = biological target: T3, Protein RecA (Mycobacterium tuberculosis, UniProt P9WHJ3); experiment: Fluorescence Cell-Free Homogeneous Dose Retest to Identify Inhibitors of RecA-Intein Splicing Activity. [Related pubchem assays (depositor defined):AID2097, AID2223, AID489010, AID492950]; assay type: functional
T3 sequence (P9WHJ3 whole entry): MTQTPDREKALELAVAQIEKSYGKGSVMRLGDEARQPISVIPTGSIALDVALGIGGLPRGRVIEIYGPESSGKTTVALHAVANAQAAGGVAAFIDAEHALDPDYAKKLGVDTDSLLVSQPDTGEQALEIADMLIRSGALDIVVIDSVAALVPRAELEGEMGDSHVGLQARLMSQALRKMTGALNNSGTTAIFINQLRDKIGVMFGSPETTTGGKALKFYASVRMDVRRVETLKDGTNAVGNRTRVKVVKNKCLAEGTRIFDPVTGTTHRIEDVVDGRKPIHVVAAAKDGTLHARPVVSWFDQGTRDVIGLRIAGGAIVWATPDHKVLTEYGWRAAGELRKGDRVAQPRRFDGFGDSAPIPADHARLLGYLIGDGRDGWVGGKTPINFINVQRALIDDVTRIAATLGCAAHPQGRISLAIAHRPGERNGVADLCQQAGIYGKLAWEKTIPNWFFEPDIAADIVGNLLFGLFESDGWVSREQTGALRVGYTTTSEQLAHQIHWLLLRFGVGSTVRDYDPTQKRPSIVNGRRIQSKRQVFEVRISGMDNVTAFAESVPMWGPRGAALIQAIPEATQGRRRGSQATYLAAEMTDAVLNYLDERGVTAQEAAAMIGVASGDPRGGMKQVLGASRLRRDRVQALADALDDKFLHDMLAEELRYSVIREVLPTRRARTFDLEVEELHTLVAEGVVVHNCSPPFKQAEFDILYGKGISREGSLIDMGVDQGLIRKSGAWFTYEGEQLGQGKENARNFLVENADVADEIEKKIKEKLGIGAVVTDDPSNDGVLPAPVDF

Estrogen receptor beta [14] = biological target: T4, Estrogen receptor beta (Homo sapiens, UniProt Q92731); experiment: blockers of SRC-3 recruitment to ERβ – biochemical, ELISA, streptavidin-HRP readout, orthogonal assay, confirmation (AID 1060)
Estrogen receptor beta [15] = biological target: T4, Estrogen receptor beta
[16] = biological target: T5, Oxysterols receptor LXR-beta (Homo sapiens, UniProt P55055); assay type: functional, cell-based;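 note: agonist activity at LXR measured by a cell-based luminescence readout across a dose range, run as a counterscreen for daf-12 agonists; HEK293 cells with Gal4-LXR fusion and GAL4-driven luciferase reporter; potency for activation of Gal4-LXR reporter so compounds are agonists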
T5 sequence (P55055 whole entry): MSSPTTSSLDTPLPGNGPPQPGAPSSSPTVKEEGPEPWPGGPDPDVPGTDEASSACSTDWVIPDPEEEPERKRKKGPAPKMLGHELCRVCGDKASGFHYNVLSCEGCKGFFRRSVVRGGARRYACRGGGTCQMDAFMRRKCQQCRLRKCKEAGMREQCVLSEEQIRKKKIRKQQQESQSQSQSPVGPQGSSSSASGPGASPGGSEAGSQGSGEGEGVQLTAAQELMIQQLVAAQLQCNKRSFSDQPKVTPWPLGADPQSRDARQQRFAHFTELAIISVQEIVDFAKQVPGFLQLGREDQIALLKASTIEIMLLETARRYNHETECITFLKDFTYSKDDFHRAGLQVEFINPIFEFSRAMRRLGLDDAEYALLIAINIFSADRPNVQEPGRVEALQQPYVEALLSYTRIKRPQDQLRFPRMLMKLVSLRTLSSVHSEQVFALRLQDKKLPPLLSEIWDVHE

Protein skinhead-1 = biological target: T6, Protein skinhead-1 (Caenorhabditis elegans, UniProt P34707); assay type: functional
T6 sequence (P34707 whole entry): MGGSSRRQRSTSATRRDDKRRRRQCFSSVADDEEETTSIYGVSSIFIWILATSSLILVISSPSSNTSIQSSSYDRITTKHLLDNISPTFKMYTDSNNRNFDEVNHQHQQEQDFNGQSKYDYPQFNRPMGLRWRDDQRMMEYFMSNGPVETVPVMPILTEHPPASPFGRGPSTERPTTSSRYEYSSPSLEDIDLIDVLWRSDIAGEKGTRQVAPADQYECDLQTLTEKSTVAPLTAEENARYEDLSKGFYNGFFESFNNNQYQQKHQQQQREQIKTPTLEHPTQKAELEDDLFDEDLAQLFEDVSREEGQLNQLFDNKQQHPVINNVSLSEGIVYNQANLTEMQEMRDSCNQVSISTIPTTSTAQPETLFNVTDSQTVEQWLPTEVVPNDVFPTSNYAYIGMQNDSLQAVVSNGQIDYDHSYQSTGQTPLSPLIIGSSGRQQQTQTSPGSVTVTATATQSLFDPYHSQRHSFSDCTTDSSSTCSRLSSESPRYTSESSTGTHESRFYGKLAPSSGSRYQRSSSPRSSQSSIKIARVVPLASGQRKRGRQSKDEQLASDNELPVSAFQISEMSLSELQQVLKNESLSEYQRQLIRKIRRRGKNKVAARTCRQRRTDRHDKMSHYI

Chain of Paired box protein Pax-8 (Q06710 whole entry): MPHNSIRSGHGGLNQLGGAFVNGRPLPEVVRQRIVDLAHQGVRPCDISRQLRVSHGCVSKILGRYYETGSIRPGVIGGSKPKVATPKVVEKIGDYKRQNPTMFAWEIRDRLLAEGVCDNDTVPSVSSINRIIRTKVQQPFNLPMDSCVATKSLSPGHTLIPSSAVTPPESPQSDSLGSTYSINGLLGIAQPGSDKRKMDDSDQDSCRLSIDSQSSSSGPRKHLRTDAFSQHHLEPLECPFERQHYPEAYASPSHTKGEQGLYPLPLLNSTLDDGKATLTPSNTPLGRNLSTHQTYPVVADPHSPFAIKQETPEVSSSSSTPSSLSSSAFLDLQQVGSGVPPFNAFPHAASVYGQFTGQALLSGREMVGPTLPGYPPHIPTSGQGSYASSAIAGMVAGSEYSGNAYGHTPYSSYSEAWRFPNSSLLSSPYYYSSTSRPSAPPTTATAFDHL
T4 sequence (Q92731 whole entry): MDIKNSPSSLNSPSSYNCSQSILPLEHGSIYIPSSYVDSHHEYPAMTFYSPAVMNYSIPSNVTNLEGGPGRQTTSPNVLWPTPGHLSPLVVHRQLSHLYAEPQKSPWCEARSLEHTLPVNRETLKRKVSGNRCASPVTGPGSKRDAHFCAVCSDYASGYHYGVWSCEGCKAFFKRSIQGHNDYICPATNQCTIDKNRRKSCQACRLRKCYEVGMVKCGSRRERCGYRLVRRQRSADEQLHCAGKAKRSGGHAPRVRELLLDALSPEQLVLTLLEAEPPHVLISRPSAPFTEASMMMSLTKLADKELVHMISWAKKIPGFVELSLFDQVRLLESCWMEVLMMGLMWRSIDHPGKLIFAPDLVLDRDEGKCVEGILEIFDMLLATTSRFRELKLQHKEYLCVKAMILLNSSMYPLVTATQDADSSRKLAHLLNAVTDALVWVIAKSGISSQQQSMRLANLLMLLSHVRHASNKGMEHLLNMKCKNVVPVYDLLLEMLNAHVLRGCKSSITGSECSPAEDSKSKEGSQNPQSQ

Compound: O=C(O)c1cccc(COc2ccc(CO)cc2Cl)c1
- AC50 [1]: 0.296 µM (active)
- AC50 [2]: 0.274 µM (active)
- AC50 [3]: 1.04 µM (active)
- AC50 [4]: > 52 µM (inactive)
- AC50 [5]: 35 µM (active)
- EC50 [6]: 0.375 µM (active)

Compound: Cc1cc(O)nc(SCC(=O)c2ccc(F)c(C)c2)n1
- AC50 [7]: 26.9 µM (active)

Compound: COc1cccc(-c2ccc([C@@H]3[C@H]4CNC[C@@H]3N4Cc3ccc4c(c3)OCO4)cc2)c1
- AC50 [7]: 34.3 µM (active)

Compound: O=C(Nc1cc(F)ccc1F)N1CC(=O)N2[C@H](CO)[C@@H](c3ccc(C#CC4CCCCC4)cc3)[C@@H]2C1
- AC50 [8]: 13.3 µM (active)
- AC50 [9]: 40.3 µM (active)

Compound: Cc1ccc(S(=O)(=O)Nc2ccc3c(c2)C(=O)N([C@@H](C)CO)C[C@H](C)[C@@H](CN(C)Cc2ccc(C(F)(F)F)cc2)OCCCC[C@@H](C)O3)cc1
- AC50 [10]: 11.4 µM (active)
- AC50 [11]: 33.1 µM (active)
- AC50 (Paired box protein Pax-8): 5.99 µM (active)
- AC50 [12]: 30.4 µM (active)

Compound: CCCCNC(=O)c1c(N)n(Cc2ccc3c(c2)OCO3)c2nc3ccccc3nc12
- AC50 [13]: 19.4 µM (active)
- EC50 (Protein RecA): 56.3 µM (active)

Compound: C[C@H]1CCCCO[C@@H](CN(C)Cc2ccc(C(F)(F)F)cc2)[C@@H](C)CN([C@@H](C)CO)C(=O)c2cc(NC(=O)c3ccccc3)ccc2O1
- AC50 [10]: 6.48 µM (active)
- AC50 [11]: 29.4 µM (active)
- AC50 (Paired box protein Pax-8): 7.47 µM (active)
- AC50 [12]: > 70 µM (inactive)

Compound: C[C@H]1CCCCO[C@@H](CN(C)Cc2ccc(C(F)(F)F)cc2)[C@@H](C)CN([C@@H](C)CO)C(=O)c2cc(NS(=O)(=O)c3ccccc3)ccc2O1
- AC50 [10]: 58.1 µM (active)
- AC50 [11]: 47.8 µM (active)
- AC50 (Paired box protein Pax-8): 7.08 µM (active)
- AC50 [12]: > 70 µM (inactive)

Compound: CCCOC(=O)c1cc(-c2ccc(/C=C3/C(=O)N(C)C(=O)C(C#N)=C3C)o2)ccc1Cl
- IC50 (Estrogen receptor beta [14]): 10.3 µM (not active)
- IC50 (Estrogen receptor beta [15]): > 50 µM (not active)

Compound: Cc1ccccc1S(=O)(=O)N1CCCCN2[C@H](CO)[C@H](c3ccc(-c4ccccc4)cc3)[C@H]2C1
- AC50 [8]: 1.05 µM (active)
- AC50 [9]: 8.53 µM (active)

Compound: Cc1cc(C(=O)CSc2cccc[n+]2[O-])c(C)n1-c1ccccc1
- EC50 [16]: > 67.5 µM (inactive)

Compound: Brc1ccc(-c2noc(-c3ccccc3)n2)o1
- IC50 (Protein skinhead-1): > 100 µM (inactive)
- EC50 [16]: > 67.6 µM (inactive)

Compound: N=C1/C(=C/c2ccc(OCc3ccccc3F)cc2)C(=O)N=C2SC(CC(=O)N3CCOCC3)=NN12
- EC50 [16]: > 67.5 µM (inactive)

Compound: O=c1c2ccccc2nnn1CCc1ccccc1
- EC50 [16]: > 67.4 µM (inactive)
